Data on 5 compounds can be found in US11993640B2, “Treating inflammatory lung disease” (United States Government as represented by the Department …, priority 2019, dated 2024).

Each structure is given as a SMILES string. Non-standard residues stand in square brackets, D forms with d. Residues, ends and D or L forms follow the SMILES beside them. *: point of attachment. Phenylacetyl(2,3,4,5,6-F5) = O=C(Cc1c(F)c(F)c(F)c(F)c1F)*; Phe(4-Cl) = N[C@@H](Cc1ccc(Cl)cc1)C(=O)O; hArg = N=C(N)NCCCC[C@H](N)C(=O)O; 12Ado = NCCCCCCCCCCCC(=O)O; Nle = CCCC[C@H](N)C(=O)O; Orn = NCCC[C@H](N)C(=O)O; Abu = CC[C@H](N)C(=O)O; PhAc = O=C(Cc1ccccc1)*; Aoc = NCCCCCCCC(=O)O

Common to all, as to format: cell-based, human
What all share (details): 5 μM, 72 h; relative to MIA602 = 1; Table 3A

The test system of test [1] is KATOIII cells. As to the kind of experiment: In vitro cell viability, stomach cancer KATOIII. How it is done:
(§1) The inhibitory effects of the various synthesized GHRH antagonists were tested in cell proliferation assays in various human cancer cell lines including stomach cancer (KATOIII, N87), colon cancer (HT-29), urothelial cancer (J82, RT4), pancreatic cancer (PANC-1, CFPAC-1), prostatic cancer (PC3), breast cancer (MX-1, HCC1806), ovarian cancer (SK-OV-3, OVCAR-3) and lung cancer (HCC827, H460).
(§2) Cell culture. Human cancer cell lines including pancreatic (PANC-1 and CFPAC-1), lung (HCC827 and H460), stomach (NCI-N87 and KATOIII), urothelial (J82, RT4), prostatic (PC3), breast (MX-1 and HCC 1806), colorectal (HT-29), and ovarian (SK-OV-3 and OVCAR-3) were obtained from the American Type Culture Collection (ATCC) and cultured at 37° C. in a humidified 95% air/5% CO2 atmosphere in the medium recommended by ATCC.
(§3) In vitro cell viability. Cell viability was analyzed as follows: cancer cells including pancreatic (PANC-1 and CFPAC-1), lung (HCC827 and H460), stomach (NCI-N87 and KATOIII), urothelial (J82, RT4), prostatic (PC3) and breast (MX-1 and HCC 1806), colorectal (HT-29) and ovarian (SK-OV-3 and OVCAR-3) were grown on 96 well plates to ˜60% confluence, the cells were starved for 24 h in culture medium containing 0.5% FBS. Cells were then treated with GHRH antagonists MIA602 AVR compounds at concentrations of 1, 2.5 or 5 μM, or vehicle (0.1% DMSO) in quintuplicates for 72 hours. The medium was replaced every 48 hours. Cell viability was measured using CellTiter 96 aqueous one solution kit (Promega). Inhibitory effects of tested AVR compounds in comparison to that of MIA602 are presented as inhibitory potency.
(§4) Inhibitory effects of selected AVR compounds in comparison to that of MIA602 are presented as inhibitory potency (e.g., percentage of inhibition). […] The cell lines tested including lung cancer HCC827 (FIG. 2A), pancreatic cancer CFPAC-1 (FIG. 2B), stomach cancer N87 (FIG. 2C), colon cancer HT-29 (FIG. 2D), breast cancers MX-1 and HCC1806 (FIGS. 2E, F). Based on the results of cell proliferation assay after cancer cells were treated with antagonist at concentration of 5 μM for 72H, the relative inhibitory potency of AVR antagonists in comparison to MIA-602 is summarized in Table 3 A and B. Over 60 AVR compounds were tested in 12 cancer cell lines.

Test [2] relates to HCC827 cells. As to the kind of experiment: In vitro cell viability, lung cancer HCC827. How it is done: as §1, §2, §3, §4
(§5) Based on the results of cell proliferation assay after cancer cells were treated with antagonist at concentration of 5 µM for 72H, * at concentration of 2 µM for 72 H.

For test [3], the system named is CFPAC-1 cells. Nature of the test: In vitro cell viability, pancreatic cancer CFPAC-1. How it is done:
as §1, §2, §3, §4, §5

Consider `CCCC[C@H](NC(=O)[C@@H](NC(=O)[C@H](CC(=O)O)NC(=O)[C@H](CCC(N)=O)NC(=O)[C@H](CC(C)C)NC(=O)[C@H](CC(C)C)NC(=O)[C@H](CCCCN)NC(=O)[C@H](CCCNC(=N)N)NC(=O)[C@H](C)NC(=O)[C@H](CO)NC(=O)[C@H](CC(C)C)NC(=O)[C@H](CCC(N)=O)NC(=O)[C@H](CC)NC(=O)[C@H](CC(C)C)NC(=O)[C@@H](NC(=O)[C@H](CCCCN)NC(=O)[C@H](CCCNC(=N)N)NC(=O)[C@H](Cc1ccc(OC)cc1)NC(=O)[C@H](CCCNC(=N)N)NC(=O)[C@H](CC(N)=O)NC(=O)[C@@H](NC(=O)[C@H](Cc1ccc(Cl)cc1)NC(=O)[C@@H](NC(=O)[C@H](C)NC(=O)[C@H](CC(=O)O)NC(=O)[C@@H](CCCNC(=N)N)NC(=O)[C@H](Cc1ccc(O)cc1)NC(=O)CCCCCCCCCCCNC(=O)Cc1ccccc1)[C@@H](C)CC)[C@@H](C)O)C(C)C)[C@@H](C)CC)C(=O)N[C@H](CCCNC(=N)N)C(=O)N[C@@H](CCCCNC(=N)N)C(=O)NC` [AVR-234, PhAC-Ada-Tyr-DArg-Asp-Ala-Ile-Cpa-Thr-Asn-Arg-Tyr(Me)-Arg-Lys-Val-Leu-Abu-Gln-Leu-Ser-Ala-Arg-Lys-Leu-Leu-Gln-Asp-Ile-Nle-DArg-Har-NHCH3] ({PhAc-12Ado}-Y[dR]DAI[Phe(4-Cl)]TNRY(Me)RKVL[Abu]QLSARKLLQDI[Nle][dR][hArg]-NHMe), for which the “Relative inhibitory potency, Stomach KATOIII” value in test [1] turned out to be 1.709. Besides, the “Relative inhibitory potency, Lung HCC827” value in test [2] came to 4.510. For the same compound, the “Relative inhibitory potency, Pancreatic CFPAC-1” value in test [3] amounted to 2.205.
`CCCC[C@H](NC(=O)[C@@H](NC(=O)[C@H](CC(=O)O)NC(=O)[C@H](CCC(N)=O)NC(=O)[C@H](CC(C)C)NC(=O)[C@H](CC(C)C)NC(=O)[C@H](CCCCN)NC(=O)[C@H](CCCNC(=N)N)NC(=O)[C@H](C)NC(=O)[C@H](CO)NC(=O)[C@H](CC(C)C)NC(=O)[C@H](CCC(N)=O)NC(=O)[C@H](CC)NC(=O)[C@H](CC(C)C)NC(=O)[C@@H](NC(=O)[C@H](CCCCN)NC(=O)[C@H](CCCNC(=N)N)NC(=O)[C@H](Cc1ccc(OC)cc1)NC(=O)[C@H](CCCCNC(=N)N)NC(=O)[C@H](CC(N)=O)NC(=O)[C@@H](NC(=O)[C@H](Cc1ccc(Cl)cc1)NC(=O)[C@@H](NC(=O)[C@H](C)NC(=O)[C@H](CC(=O)O)NC(=O)[C@@H](CCCNC(=N)N)NC(=O)[C@H](Cc1ccc(O)cc1)NC(=O)CCCCCCCCCCCNC(=O)Cc1ccccc1)[C@@H](C)CC)[C@@H](C)O)C(C)C)[C@@H](C)CC)C(=O)N[C@H](CCCNC(=N)N)C(=O)N[C@@H](CCCCNC(=N)N)C(=O)NCCCCCCCC(=O)NC` [AVR-321, PhAC-Ada-Tyr-DArg-Asp-Ala-Ile-Cpa-Thr-Asn-Har-Tyr(Me)-Arg-Lys-Val-Leu-Abu-Gln-Leu-Ser-Ala-Arg-Lys-Leu-Leu-Gln-Asp-Ile-Nle-DArg-Har-Aoc-NHCH3] ({PhAc-12Ado}-Y[dR]DAI[Phe(4-Cl)]TN[hArg]Y(Me)RKVL[Abu]QLSARKLLQDI[Nle][dR][hArg][Aoc]-NHMe): the “Relative inhibitory potency, Stomach KATOIII” value in test [1] is reported as 1.414.
The same measure, in the same setting: to `CCCC[C@H](NC(=O)[C@@H](NC(=O)[C@H](CC(=O)O)NC(=O)[C@H](CCC(N)=O)NC(=O)[C@H](CC(C)C)NC(=O)[C@H](CC(C)C)NC(=O)[C@H](CCCCN)NC(=O)[C@H](CCCNC(=N)N)NC(=O)[C@H](C)NC(=O)[C@H](CO)NC(=O)[C@H](CC(C)C)NC(=O)[C@H](CCC(N)=O)NC(=O)[C@H](CC)NC(=O)[C@H](CC(C)C)NC(=O)[C@@H](NC(=O)[C@H](CCCCN)NC(=O)[C@H](CCCNC(=N)N)NC(=O)[C@H](Cc1ccc(OC)cc1)NC(=O)[C@H](CCCCNC(=N)N)NC(=O)[C@H](CC(N)=O)NC(=O)[C@@H](NC(=O)[C@H](Cc1ccc(Cl)cc1)NC(=O)[C@@H](NC(=O)[C@H](C)NC(=O)[C@H](CC(=O)O)NC(=O)[C@@H](CCCNC(=N)N)NC(=O)[C@H](Cc1ccc(O)cc1)NC(=O)CCCCCCCCCCCNC(=O)Cc1c(F)c(F)c(F)c(F)c1F)[C@@H](C)CC)[C@@H](C)O)C(C)C)[C@@H](C)CC)C(=O)N[C@H](CCCNC(=N)N)C(=O)N[C@@H](CCCCNC(=N)N)C(=O)NCCCCCCCC(=O)NC` [AVR-322, 5FPhAC-Ada-Tyr-DArg-Asp-Ala-Ile-Cpa-Thr-Asn-Har-Tyr(Me)-Arg-Lys-Val-Leu-Abu-Gln-Leu-Ser-Ala-Arg-Lys-Leu-Leu-Gln-Asp-Ile-Nle-DArg-Har-Aoc-NHCH3] ({Phenylacetyl(2,3,4,5,6-F5)-12Ado}-Y[dR]DAI[Phe(4-Cl)]TN[hArg]Y(Me)RKVL[Abu]QLSARKLLQDI[Nle][dR][hArg][Aoc]-NHMe) belongs 1.296.
Turning to `CCCC[C@H](NC(=O)[C@@H](NC(=O)[C@H](CC(=O)O)NC(=O)[C@H](CCC(N)=O)NC(=O)[C@H](CC(C)C)NC(=O)[C@H](CC(C)C)NC(=O)[C@H](CCCCN)NC(=O)[C@H](CCCNC(=N)N)NC(=O)[C@H](C)NC(=O)[C@H](CO)NC(=O)[C@H](CC(C)C)NC(=O)[C@H](CCC(N)=O)NC(=O)[C@H](CC)NC(=O)[C@H](CC(C)C)NC(=O)[C@@H](NC(=O)[C@H](CCCCN)NC(=O)[C@H](CCCNC(=N)N)NC(=O)[C@H](Cc1ccc(OC)cc1)NC(=O)[C@H](CCCCNC(=N)N)NC(=O)[C@H](CC(N)=O)NC(=O)[C@@H](NC(=O)[C@H](Cc1ccc(Cl)cc1)NC(=O)[C@@H](NC(=O)[C@H](C)NC(=O)[C@H](CC(=O)O)NC(=O)[C@@H](CCCNC(=N)N)NC(=O)[C@H](Cc1ccc(O)cc1)NC(=O)CCCCCCCCCCCNC(=O)Cc1ccccc1)[C@@H](C)CC)[C@@H](C)O)C(C)C)[C@@H](C)CC)C(=O)N[C@H](CCCNC(=N)N)C(=O)N[C@@H](CCCCNC(=N)N)C(=O)NCCCCCCCCCCCC(N)=O` [AVR-332] ({PhAc-12Ado}-Y[dR]DAI[Phe(4-Cl)]TN[hArg]Y(Me)RKVL[Abu]QLSARKLLQDI[Nle][dR][hArg][12Ado]-NH2), the “Relative inhibitory potency, Stomach KATOIII” value in test [1] was found to be 1.643.
Consider `CCCC[C@H](NC(=O)[C@@H](NC(=O)[C@H](CC(=O)O)NC(=O)[C@H](CCC(N)=O)NC(=O)[C@H](CC(C)C)NC(=O)[C@H](CC(C)C)NC(=O)[C@H](CCCN)NC(=O)[C@H](Cc1c[nH]cn1)NC(=O)[C@H](C)NC(=O)[C@H](CO)NC(=O)[C@H](CC(C)C)NC(=O)[C@H](CCC(N)=O)NC(=O)[C@H](CC)NC(=O)[C@H](CC(C)C)NC(=O)[C@@H](NC(=O)[C@H](CCCCN)NC(=O)[C@H](CCCNC(=N)N)NC(=O)[C@H](Cc1ccc(OC)cc1)NC(=O)[C@H](CCCNC(=N)N)NC(=O)[C@H](CC(N)=O)NC(=O)[C@@H](NC(=O)[C@H](Cc1ccc(Cl)cc1)NC(=O)[C@@H](NC(=O)[C@H](C)NC(=O)[C@H](CC(=O)O)NC(=O)[C@@H](CCCNC(=N)N)NC(=O)[C@H](Cc1ccc(O)cc1)NC(=O)CCCCCCCCCCCNC(=O)Cc1c(F)c(F)c(F)c(F)c1F)[C@@H](C)CC)[C@@H](C)O)C(C)C)[C@@H](C)CC)C(=O)N[C@H](CCCNC(=N)N)C(=O)N[C@@H](CCCCNC(=N)N)C(=O)NCCCCCCCCCCCC(N)=O` [AVR-620, 5FPhAC-Ada-Tyr-DArg-Asp-Ala-Ile-Cpa-Thr-Asn-Arg-Tyr(Me)-Arg-Lys-Val-Leu-Abu-Gln-Leu-Ser-Ala-His-Orn-Leu-Leu-Gln-Asp-Ile-Nle-DArg-Har-Ada-NH2] ({Phenylacetyl(2,3,4,5,6-F5)-12Ado}-Y[dR]DAI[Phe(4-Cl)]TNRY(Me)RKVL[Abu]QLSAH[Orn]LLQDI[Nle][dR][hArg][12Ado]-NH2), for which the “Relative inhibitory potency, Stomach KATOIII” value in test [1] is 1.769. In addition, in test [2], the “Relative inhibitory potency, Lung HCC827” value amounted to 3.753. The “Relative inhibitory potency, Pancreatic CFPAC-1” value in test [3] is 1.567.
